In patent US20240382484A1, “COMPOSITION FOR TREATING, PREVENTING, OR AMELIORATING MELANOMA AND METHOD THEREOF” (Thomas Jefferson University, priority 2021, published 2024):

What was measured:
[1] = test system: WM1361A and WM1366 PDPK1-depleted clones; assay: Cell growth of PDPK1-depleted (sgRNA knockout) clones in response to MEKi; type: cell-based, human; conditions: for decrease of the half-maximum inhibitory concentration by PDPK1 depletion: WM1361A and WM1366, 5 days, PDPK1-depleted clones vs parental clone; for cell proliferation, MEKi combined with PDPK1 depletion: WM1361A and WM1366 KO1 and KO2 clones
Description: (§1) FIGS. 3A-3B: PDPK1 depletion by two individual sgRNAs in WM1361A (FIG. 3A) or WM1366 (FIG. 3B) cells were analyzed by immunoblot. FIGS. 3C-3D, Cell growth of WM1361A (FIG. 3C) or WM1366 (FIG. 3D) parental clones (Cas9) and PDPK1-depleted clones by two individual sgRNAs (KO1 and KO2) treated with vehicle (DMSO) or trametinib (Tram) was monitored by IncuCyte every 2 hours. Media were replaced twice with fresh drugs during culture. Data are represented as the mean±SEM of three biological independent experiments. p values were calculated with an unpaired two-tailed t test. n.s., not significant. FIGS. 3E-3F, Cellular growth in response to trametinib at the indicated doses for 5 days in WM1361A (FIG. 3E) or WM1366 (FIG. 3F) parental clone (iCas9) and PDPK1-depleted clones (KO1 and K02). Media were replaced once with drugs during culture. Data are represented as dots of three biological independent experiments. FIGS. 3G-3J, PDPK1 knockdown by ON-target control siRNAs and two individual siRNAs in SK-MEL-30 (FIG. 3G) or SK-MEL-173 cells (FIG. 3I) was analyzed by immunoblot. Cellular growth in response to trametinib at the indicated doses for 3 days in SK-MEL-30 (FIG. 3H) or SK-MEL-173 (FIG. 3J) control cells (siCtrl) and PDPK1-knockdown cells (siPDPK1s). Data are represented as dots of at least three biological independent experiments.
FIG. 12A-12B: Cell growth of WM1361A (FIG. 12A) or WM1366 (FIG. 12B) parental clone (Cas9) and PDPK1-depleted clones (KO1 and K02) treated with vehicle (DMSO) or PD0325901 (PD) was monitored by IncuCyte every 2 hours. Media were replaced twice with drugs during culture. Data are represented as the mean±SEM of three biological independent experiment. p values were calculated with an unpaired two-tailed t test. n.s., not significant. FIGS. 12C-12D, Cellular growth in response to PD0325901 at the indicated doses for 5 days in WM1361A (FIG. 12C) or WM1366 (FIG. 12D) parental clone (iCas9) and PDPK1-depleted clones (KO1 and K02). Media were replaced once with drugs during culture. Data are represented as dots of three biological independent experiments. FIG. 12E-12F, Cellular growth in response to PD0325901 at the indicated doses for 3 days in SK-MEL-30 (FIG. 12E) or SK-MEL-173 (FIG. 12F) control cells (siCtrl) and PDPK1-knockdown cells (siPDPK1s). Data are represented as dots of at least three biological independent experiments.
To test whether the synergistic effects of GSK2334470 was PDPK1-dependent, the present study generated PDPK1 knockout clones using high gene-editing efficiency clones of WM1361A and WM1366 cells. Depletion of PDPK1 by two different sgRNAs in both cell lines (FIGS. 3A-3B) attenuated cellular proliferation (FIGS. 3C-3D). […]

[2] = test system: WM1361A, WM1366, SK-MEL-30 or SK-MEL-173 cells; assay: 7-day cell growth monitored by IncuCyte; type: cell-based, human; conditions: 7-day treatment course
Description: FIG. 2A: NRAS mutant melanoma cell line WM1361A, WM1366, SK-MEL-30, SK-MEL-173, 1007 and 1014 were treated for 72 hours as indicated with GSK2334470 and trametinib and analyzed for cell density by IncuCyte. Synergy graphs were generated utilizing Combenefit Software with Loewe method. Data are represented as the mean from three biological independent experiments. FIG. 2B: WM1361A, WM1366, SK-MEL-30 or SK-MEL-173 cells were treated with GSK2334470 (PDPK1i) and trametinib (tram) alone or in combination (comb) at the indicated concentrations for 7 days. Cell growth was monitored by IncuCyte every 2 hours. Media were replaced twice with drugs during culture. Data are represented as the mean±SEM of three biological independent experiments. p values were calculated with an unpaired two-tailed t test. n.s., not significant.
FIG. 11A: WM1361A, WM1366, SK-MEL-30 and SK-MEL-173 cells were treated for 72 hours as indicated with GSK2334470 and PD0325901 and analyzed for cell density by IncuCyte. […] Cell growth was monitored by IncuCyte every 2 hours. Data are represented as the mean±SEM of three biological independent experiments. p values were calculated with an unpaired two-tailed t test. n.s., not significant.
For cell proliferation and drug response, cells were monitored by IncuCyte® (Essen Bioscience, Ann Arbor, MI) every 2 hours.

[3] = test system: SK-MEL-30 and SK-MEL-173 PDPK1-knockdown cells; assay: Cellular growth of siRNA PDPK1-knockdown cells in response to MEKi; type: cell-based, human; conditions: SK-MEL-30 and SK-MEL-173, 3 days, siPDPK1 vs siCtrl
Description: as §1, with “Data are represented as dots of three biological independent experiments.” left out, “Cellular growth in response to trametinib at the indicated doses for 3 days in SK-MEL-30 (FIG. 3H) or SK-MEL-173 (FIG. 3J) control cells (siCtrl) and PDPK1-knockdown cells (siPDPK1s). Data are represented as dots of at least three biological independent experiments.” left out
FIG. 12A-12B: Cell growth of WM1361A (FIG. 12A) or WM1366 (FIG. 12B) parental clone (Cas9) and PDPK1-depleted clones (KO1 and K02) treated with vehicle (DMSO) or PD0325901 (PD) was monitored by IncuCyte every 2 hours. […] Data are represented as the mean±SEM of three biological independent experiment. p values were calculated with an unpaired two-tailed t test. n.s., not significant. […]

[4] = test system: Nras Q61K mouse melanoma isografts of 1014 cells; assay: 1014 allograft model in immunocompetent B6 mice; type: in vivo; conditions: trametinib chow and/or GSK2334470 injection three times per week

| SMILES | decrease of the half-maximum inhibitory concentration by PDPK1 depletion [1] | cell proliferation, MEKi combined with PDPK1 depletion [1] | cell proliferation, MEKi combined with PDPK1i (GSK2334470) [2] | half-maximum inhibitory concentration upon PDPK1 knockdown [3] | tumor growth [4] |
| --- | --- | --- | --- | --- | --- |
| O=C(NOC[C@H](O)CO)c1ccc(F)c(F)c1Nc1ccc(I)cc1F [PD0325901, (R)—N-(2,3-dihydroxypropoxy)-3,4-difluoro-2-((2-fluoro-4-iodophenyl)amino)benzamide] | approximately 4 fold | effectively inhibited | profoundly inhibited | decreased |  |
| CC(=O)Nc1cccc(-n2c(=O)n(C3CC3)c(=O)c3c(Nc4ccc(I)cc4F)n(C)c(=O)c(C)c32)c1 [trametinib, N-(3-(3-cyclopropyl-5-((2-fluoro-4-iodophenyl)amino)-6,8-dimethyl-2,4,7-trioxo-3,4,6,7-tetrahydropyrido[4,3-d]pyrimidin-1(2H)-yl)phenyl)acetamide] | approximately 4 fold | effectively inhibited | profoundly inhibited | decreased | modest delay of tumor growth |
